Assay results reported in patent publication US20230346737A1, “COMPOUNDS AND METHODS FOR PREVENTION AND TREATMENT OF VIRUS INFECTIONS” (priority 2020, published 2023).
pIC50: −log10 of the molar value.

Target: T1, sodium taurocholate cotransporting polypeptide (NTCP) (Homo sapiens, UniProt Q14973)
T1 construct: expressed in transfected cells; host or cells: Huh7 (NTCP); E. coli BL21(DE3) (GST fusion bait)
T1 sequence (Q14973 1-349): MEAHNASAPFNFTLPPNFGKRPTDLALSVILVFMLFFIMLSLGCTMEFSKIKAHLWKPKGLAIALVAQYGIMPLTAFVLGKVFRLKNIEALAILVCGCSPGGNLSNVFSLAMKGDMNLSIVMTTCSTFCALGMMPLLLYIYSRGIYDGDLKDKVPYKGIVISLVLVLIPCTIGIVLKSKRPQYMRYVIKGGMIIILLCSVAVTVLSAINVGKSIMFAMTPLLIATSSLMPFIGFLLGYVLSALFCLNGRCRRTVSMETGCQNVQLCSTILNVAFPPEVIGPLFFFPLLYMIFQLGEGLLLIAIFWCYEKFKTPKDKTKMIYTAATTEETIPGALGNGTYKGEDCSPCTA
Assay: PreS1-NTCP pull down assay
Assay type: binding
Settings: 0, 10, 20 and 100 μM
Description: Expression and purification of recombinant fusion proteins and the GST pull-down assay were performed as described previously. Briefly, expression of GST fusion proteins in E. coli BL21(DE3) was induced with 0.5 mM isopropyl-β-D-thiogalactopyranoside, then the bacterial cells were lysed by sonication at 4° C. in PBS containing 1% Triton X-100 (PBST) and separated into soluble and insoluble fractions by centrifugation at 13,800 g for 10 min at 4° C. To perform GST pull-down assays, the soluble fraction of bacterial lysates containing GST-fusion proteins was incubated for 3 hours at 4° C. with glutathione-Sepharose 4B beads (GE Healthcare Bio-Sciences), then the beads were washed 3 times with PBST before being incubated at 4° C. overnight with Huh7 cell lysate with overexpressed IA-NTCP prepared by lysis in PBST containing a protease inhibitor cocktail (1 mM PMSF, 10 μg/ml of aprotinin, 1 μg/ml of pepstatin A, 1 μg/ml of leupeptin). The beads were then washed with PBST, resuspended in sample buffer (12.5 mM Tris-HCl, pH 6.8, 2% SDS, 20% glycerol, 0.25% bromphenol blue, 5% b-mercaptoethanol), and subjected to SDS-polyacrylamide gel electrophoresis and examined by Western blot analysis.
To evaluate the effects of inhibitor on inhibiting HBV infection, cell lysis extracted from cells treated with AR101-DS3 or AR101-DS4.

| Structure (SMILES) | amount of NTCP from pull down assay |
| --- | --- |
| C=C(CC[C@@H](C(=O)O)[C@H]1C[C@H](OC(C)=O)[C@@]2(C)C3=C(CC[C@]12C)[C@@]1(C)CC[C@H](O)C(C)(C)[C@@H]1CC3)C(C)C [AR101-DS3] | dose dependent increase |
| C=C(CC[C@@H](C(=O)O)[C@H]1CC[C@@]2(C)C3=CC[C@H]4C(C)(C)[C@@H](O)CC[C@]4(C)C3=CC[C@]12C)C(C)C [AR101-DS4] | significant decreased |

Target: T2, SARS-CoV-2 3CLpro (Severe acute respiratory syndrome coronavirus 2, UniProt P0DTD1)
T2 construct: containing 0.25 μM SARS-CoV-2 3CLpro
Assay: Real-time FRET protease assay with SARS-CoV-2 3CLpro and dose-response curve analysis
Assay type: biochemical
Settings: not given

| Structure (SMILES) | pIC50 |
| --- | --- |
| CC1=CCC(C(C)(C)O)C[C@@H]1O (stereo partly drawn) [ARH013-DS1, trans-p-menth-6-ene-2,8-diol] | 4.48 |

Same assay, conditions: Real-Time; 0-100 μM, pre-incubated 1 h at 37° C. with 0.25 μM 3CLpro; read-out: IC50 (μM), inhibition of SARS-CoV-2 3CLpro (Real-Time)

| Structure (SMILES) | IC50 [µM] |
| --- | --- |
| CC(=O)O[C@@H]1[C@@H](OC(C)=O)[C@@H](O)[C@H](Oc2c(-c3ccc(O)cc3)oc3cc(O)cc(O)c3c2=O)O[C@H]1C [ARH 007-DS4, kaempferol-3-O-(3,4-O-diacetyl-Alpha-L-rhamnopyranoside)] | 18.8 |
| CC(=O)O[C@@H]1[C@@H](O)[C@@H](OC(C)=O)[C@H](Oc2c(-c3ccc(O)cc3)oc3cc(O)cc(O)c3c2=O)O[C@H]1C [ARH 007-DS5, kaempferol-3-O-(2,4-O-diacetyl-Alpha-L-rhamnopyranoside)] | 48.2 |
| CC(=O)/C=C(O)/C=C/c1ccc(O)c(O)c1 [ARH 019-DS1, 6-(3,4-dihydroxyphenyl)-4-hydroxyhexa-3,5-dien-2-one] | 19.2 |
| O=c1cc(O)oc(/C=C/c2ccc(O)c(O)c2)c1 [ARH 019-DS2, 2-[(E)-2-(3,4-dihydroxyphenyl)ethenyl]-6-hydroxypyran-4-one] | 2.49 |
| C=C1CCCC(C)(C)C1Cc1c(O)cc2oc(-c3ccc(O)c(O)c3)cc(=O)c2c1O (stereo not drawn) [ARH 020-DS1, ugonin J] | 14.9 |
| CC1(C)CCC[C@@]2(C)Oc3c(O)ccc(-c4oc5cc(O)cc(O)c5c(=O)c4O)c3C[C@@H]12 [ARH 020-DS2, ugonin N] | 6.33 |
